{"source": "patent US3984547A", "about": "“Veterinary feedstuffs” (Bayer Aktiengesellschaft, priority 1971, dated 1976)", "test_system": "Escherichia coli C 165", "assay": "ED100 in mice after intraperitoneal infection, Table 3", "format": "in vivo", "details": "read-out: effective 100% dose (ED100)", "method": "In animal experiments on mice, the effective 100% dose (ED100) in mg/Kg was determined for certain compounds of the invention after intraperitoneal infection and subcutaneous (s.c.) or oral (p.o.) administration of the preparation.", "note": "Like-named read-outs stand apart in the source and are kept apart here."}
{"smiles": "CN(C)N=Cc1c(C(=O)O)[n+]([O-])c2ccccc2[n+]1[O-]", "note": "[Example 14]", "values": [{"measurement": "ED100", "setting": "C165, oral (p.c. [sic])", "result": 100, "unit": "mg/kg"}, {"measurement": "ED100", "setting": "C165, sc, s.c.", "result": 50, "unit": "mg/kg"}]}
